Results published in patent US20140256660A1, “ANTIBIOTIC CONJUGATES LINKED WITH STEROID DRUGS” (Allergan, Inc., priority 2013, published 2014).

System: human recombinant carboxylesterases
Assay: In vitro metabolic stability (rate of metabolite formation) in human recombinant carboxylesterases
Assay type: in vitro ADME
Details: human recombinant carboxylesterases 0.1 mg/mL, 1 μM test compound, pH 6.0, 37° C.
Protocol: Dutch Belted rabbits were euthanized with an overdose of sodium pentobarbital. The corneas were collected and homogenized in ice-cold potassium chloride solution (pH=7.4). The homogenate was centrifuged at 755×g for 30 min at 4° C. and aliquots of the supernatant were stored at or below −70° C. until metabolism experiments were conducted. Prior to storing the homogenates an aliquot was removed for determination of protein concentrations by calculating the 260 nm absorbance using a spectrophotometer. Human recombinant carboxylesterases were purchased from a commercial vendor (BD Gentest™, Bedford, Mass.)
All metabolic stability experiments were performed in triplicate in 96-well plate format. The final incubation mixture contained 1 μM test compound, 0.3 mg/mL corneal protein homogenate or 0.1 mg/mL human recombinant carboxylesterase mixture in a final volume of 0.5 mL 0.1 M potassium phosphate buffer (pH=6.0). The final percentage of solvent in the incubation was less than 1.0% to prevent inhibition of enzymatic activity. Following a pre-incubation at 37° C., test article (i.e. ester linked hybrids) was added to initiate the reaction. At designated time points (typically less than 60 minutes to capture the linear range of metabolite formation), 0.05 mL aliquots were removed from the incubation mixtures using a clean pipet tip and immediately placed in organic solvent to stop any esterase activity.
Hydrolysis of the metabolites was confirmed to be due to esterase activity and not chemical lability. The samples were analyzed by liquid chromatography with mass spectrometry (LC-MS/MS) detection to determine the metabolite concentrations resulting from the metabolism of ester linked hybrids. Internal standards were used to compensate for variability from sample processing, chromatographic elution, mass spectrometer response and ion suppression by matrix components.

For `COc1c(N2C[C@@H]3CCCN[C@@H]3C2)c(F)cc2c(=O)c(C(=O)OC(C)OC(=O)OCC(=O)[C@]3(O)CC[C@@H]4[C@H]5CCC6=CC(=O)C=C[C@@]6(C)C5[C@H](O)C[C@]43C)cn(C3CC3)c12` (relative stereo) [Compound 65, 1-[({2-[(8R,10S,11R,13R,14R,17S)-11,17-dihydroxy-10,13-dimethyl-3-oxo-6,7,8,9,10,11,12,13,14,15,16,17-dodecahydro-3H-cyclopenta[a]phenanthren-17-yl]-2-oxoethoxy}carbonyl)oxy]ethyl rel-1-cyclopropyl-6-fluoro-8-methoxy-7-[(4aS,7aS)-octahydro-6H-pyrrolo[3,4-b]pyridin-6-yl]-4-oxo-1,4-dihydroquinoline-3-carboxylate], the “Rate of formation Metabolite 2 (Moxifloxacin)” value (metabolite Moxifloxacin) was 482 ± 72 nM/min/mg and the “Rate of formation Metabolite 1 (Prednisolone)” value (metabolite Prednisolone) was 364 ± 27 nM/min/mg.
With `C[C@H]1C[C@H]2[C@@H]3CCC4=CC(=O)C=C[C@]4(C)[C@@]3(F)[C@@H](O)C[C@]2(C)[C@@]1(O)C(=O)COC(=O)CCC(=O)OC[C@@H](NC(=O)C(Cl)Cl)[C@H](O)c1ccc([N+](=O)[O-])cc1` (relative stereo) [Compound 73, (2R,3R)-2-[(dichloroacetyl)amino]-3-hydroxy-3-(4-nitrophenyl)propyl 2-[(8S,9R,10S,11S,13S,14S,16S,17R)-9-fluoro-11,17-dihydroxy-10,13,16-trimethyl-3-oxo-6,7,8,9,10,11,12,13,14,15,16,17-dodecahydro-3H-cyclopenta[a]phenanthren-17-yl]-2-oxoethyl rel-butanedioate] the “Rate of formation Metabolite 1 (Betamethasone)” value (metabolite Betamethasone) was 1440 ± 120 nM/min/mg and the “Rate of formation Metabolite 2 (Chloramphenicol)” value (metabolite Chloramphenicol) was 107 ± 13 nM/min/mg.
“rel-1-cyclopropyl-6-fluoro-7-[4-(4-{2-[(8R,9S,10R,11R,13R,14R,16S,17S)-9-fluoro-11,17-dihydroxy-10,13,16-trimethyl-3-oxo-6,7,8,9,10,11,12,13,14,15,16,17-dodecahydro-3H-cyclopenta[a]phenanthren-17-yl]-2-oxoethoxy}-4-oxobutanoyl)-3-methylpiperazin-1-yl]-8-methoxy-4-oxo-1,4-dihydroquinoline-3-carboxylic acid [Compound 10]” was tested, and the “Rate of formation Metabolite 1 (Dexamethasone)” value (metabolite Dexamethasone) was 737 ± 28 nM/min/mg and the “Rate of formation Metabolite 2 (Gatifloxacin)” value (metabolite Gatifloxacin) was 7.71 ± 0.57 nM/min/mg.
